Holding throughout (assay type): cell-based
Test [1] has as its system Staphylococcus haemolyticus 105. Nature of the test: Broth micro-dilution MIC, SH 105. Conditions: unit assumed. As for the experimental part:
(§1) The antibacterial efficacy of the present compounds is illustrated in TABLE 2. The minimal inhibitory concentrations (MICs) were determined using a standard broth micro-dilution assay.

Test [2] concerns Staphylococcus haemolyticus 415. Briefly: Broth micro-dilution MIC, SH 415. Conditions: unit assumed. The protocol: as §1
In general terms: Broth dilution looks for growth in wells or tubes with falling amounts of substance.

For test [3], the system named is Staphylococcus aureus 446. Briefly: Broth micro-dilution MIC, SA 446. The settings on record: unit assumed. The protocol: as §1
Test [4] has as its system Enterococcus, Sensitive (4-6 isolates). Briefly: Enterococcus screen, broth micro-dilution MIC, sensitive isolates. The arrangement: unit not given here. The settings on record: mean of 4-6 isolates. The protocol: as §1
Test [5] relates to Staphylococcus aureus 447. Briefly: Broth micro-dilution MIC, SA 447. Conditions: unit assumed. As for the experimental part:
as §1

Test [6] deals with Streptococcus pyogenes 203. Nature of the test: Broth micro-dilution MIC, S PY 203. Conditions: unit assumed. The protocol: as §1
For test [7], the system named is Enterococcus, Resistant (4-6 isolates). Nature of the test: Enterococcus screen, broth micro-dilution MIC, resistant isolates. The arrangement: unit not given here. The settings on record: mean of 4-6 isolates. As for the experimental part:
as §1

In test [8] the test system is Staphylococcus epidermis 270. Briefly: Broth micro-dilution MIC, SE 270. Conditions: unit assumed. The protocol: as §1
Test [9] concerns Staphylococcus aureus 489. Nature of the test: Broth micro-dilution MIC, SA 489. Conditions: unit assumed. As for the experimental part: as §1
In test [10] the test system is Streptococcus pneumoniae P1. Nature of the test: Broth micro-dilution MIC, S PN P1. The settings on record: unit assumed. The protocol:
as §1

In turn, “N^4 -(4-phenoxybenzyl)A82846B, phenethylamide, trifluoroacetate salt [Example 14]” came in with an MIC, SH105 in test [1] of 0.5 µg/mL. Besides, in [2], the MIC, SH415 is 2 µg/mL. Moreover, in test [3], the MIC, SA 446 is 2 µg/mL. For the same substance, the “Minimum Inhibitory Concentrations (MICs), Mean Values of 4-6 Isolates, Sensitive” value (shortened to “Minimum Inhibitory Concentrations … Sensitive”) in test [4] worked out at 0.01. In [5], this substance had an MIC, SA 447 of 2 µg/mL. This substance also showed an MIC, S PY 203 in test [6] not above 0.06 µg/mL. Also, the “Minimum Inhibitory Concentrations (MICs), Mean Values of 4-6 Isolates, Resistant” value (“Minimum Inhibitory Concentrations … Resistant” for short) in test [7] is given as 2. In [8], this substance registered an MIC, SE270 of 1 µg/mL. The substance also showed an MIC, SA 489 in test [9] of 1 µg/mL. Besides, the MIC, S PN P1 in test [10] is not above 0.06 µg/mL.

Take “N^4 -(4-phenylbenzy1)A82846B, DL-(2-furanon-3-yl)amide [Example 7]”: the MIC, SH105 in test [1] is 0.5 µg/mL. In test [2], this substance had an MIC, SH415 of 1 µg/mL. In test [3], this substance returned an MIC, SA 446 of 2 µg/mL. Also, in [4], the “Minimum Inhibitory Concentrations … Sensitive” value is on record as 0.048. The MIC, SA 447 in test [5] turned out to be 2 µg/mL. Moreover, in [6], the MIC, S PY 203 is not above 0.06 µg/mL. For the same substance, the “Minimum Inhibitory Concentrations … Resistant” value in test [7] was found to be 1.7. In test [8], this substance registered an MIC, SE270 of 0.5 µg/mL. The same substance yielded an MIC, SA 489 in [9] of 1 µg/mL. This substance also showed an MIC, S PN P1 in [10] not above 0.06 µg/mL.

In test [1], “N^4 -(4-phenylbenzyl)A82846B, (4-cyclohexylphenyl) amide, trifluoroacetate salt [Example 8]” displayed an MIC, SH105 of 4 µg/mL. Further, the MIC, SH415 in test [2] worked out at 4 µg/mL. Besides, the MIC, SA 446 in test [3] was determined as 2 µg/mL. In test [4], the “Minimum Inhibitory Concentrations … Sensitive” value is reported as 0.33. Besides, in test [5], the MIC, SA 447 was determined as 2 µg/mL. In [6], the MIC, S PY 203 was not above 0.06 µg/mL. Moreover, the “Minimum Inhibitory Concentrations … Resistant” value in [7] came out at 6.7. Moreover, in test [8], the MIC, SE270 was determined as 2 µg/mL. In test [9], this substance returned an MIC, SA 489 of 4 µg/mL. Moreover, the MIC, S PN P1 in test [10] is not above 0.06 µg/mL.

“N^4 -(4-phenylbenzyl)A82846B, butylamide, trifluoroacetate salt [Example 3]” returned an MIC, SH105 in test [1] of 0.5 µg/mL. In addition, the MIC, SH415 in test [2] is 2 µg/mL. In test [3], this substance came in with an MIC, SA 446 of 2 µg/mL. In addition, in [4], the “Minimum Inhibitory Concentrations … Sensitive” value was found to be 0.11. In addition, the MIC, SA 447 in test [5] came to 2 µg/mL. In test [6], this substance gave an MIC, S PY 203 not above 0.06 µg/mL. The “Minimum Inhibitory Concentrations … Resistant” value in [7] is recorded as 2.4. Also, the MIC, SE270 in test [8] is 1 µg/mL. Further, the MIC, SA 489 in test [9] was determined as 4 µg/mL. This substance also had an MIC, S PN P1 in test [10] not above 0.06 µg/mL.

As to “N^4 -(4-phenylbenzyl)A82846B, methylamide, trifluoroacetate salt [Example 2]”, the MIC, SH105 in test [1] came out at 0.125 µg/mL. The MIC, SH415 in test [2] stood at 0.25 µg/mL. In [3], the MIC, SA 446 is 1 µg/mL. Also, in [4], the “Minimum Inhibitory Concentrations … Sensitive” value is 0.041. Besides, the MIC, SA 447 in test [5] came to 0.5 µg/mL. Also, the MIC, S PY 203 in [6] is not above 0.06 µg/mL. Further, the “Minimum Inhibitory Concentrations … Resistant” value in test [7] amounted to 1.19. Besides, the MIC, SE270 in test [8] was not above 0.06 µg/mL. Moreover, in test [9], the MIC, SA 489 was determined as 1 µg/mL. This substance had an MIC, S PN P1 in test [10] not above 0.06 µg/mL.

The values are drawn from patent US5919756A, “Amides” (Eli Lilly and Company, priority 1997, dated 1999).
